Assay results taken from PubChem BioAssay (NCI).
“And” between values parts separate entries of the source, which are not always exact repeats. Identical values can stand only once.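 Assay format: 96-well plates, 48-hour exposure. GI50 is the concentration that inhibits growth by half. TGI marks complete inhibition of growth.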

Tests used:
Test in all cases: growth of human tumour cells (NCI), 48 h
A498 renal = tested on: A498 renal
A549 NSCLC = tested on: A549 NSCLC
HCT-116 colon = tested on: HCT-116 colon
IGROV1 ovarian = tested on: IGROV1 ovarian
LOX IMVI melanoma = tested on: LOX IMVI melanoma
SF-295 CNS = tested on: SF-295 CNS
SK-MEL-5 melanoma = tested on: SK-MEL-5 melanoma
SN12C renal = tested on: SN12C renal
TK-10 renal = tested on: TK-10 renal
UACC-62 melanoma = tested on: UACC-62 melanoma

Structure (SMILES) | GI50 (A498 renal) | TGI (A498 renal) | GI50 (A549 NSCLC) | TGI (A549 NSCLC) | GI50 (HCT-116 colon) | TGI (HCT-116 colon) | GI50 (IGROV1 ovarian) | TGI (IGROV1 ovarian) | GI50 (LOX IMVI melanoma) | TGI (LOX IMVI melanoma) | GI50 (SF-295 CNS) | TGI (SF-295 CNS) | GI50 (SK-MEL-5 melanoma) | TGI (SK-MEL-5 melanoma) | GI50 (SN12C renal) | TGI (SN12C renal) | GI50 (TK-10 renal) | TGI (TK-10 renal) | GI50 (UACC-62 melanoma) | TGI (UACC-62 melanoma)
Cc1nnc(-c2ccc(C)c(-c3ccc(C(=O)Nc4cccc(C#N)c4)cc3)c2)o1 | > 25 µM | > 25 µM | > 25 µM | > 25 µM | > 25 µM | > 25 µM | > 25 µM | > 25 µM | > 25 µM | > 25 µM | > 25 µM | > 25 µM | > 16.2 µM | > 25 µM | > 25 µM | > 25 µM | > 25 µM | > 25 µM | > 25 µM | > 25 µM
CNC(=O)OCc1c(COC(=O)NC)c(-c2ccc(-c3ccccc3)cc2)n(C)c1C | – | 2.39 µM | – | 14.1 µM | – | 14.1 µM | – | 12 µM | – | 11.7 µM | – | 10.8 µM | – | 14 µM | – | 3.8 µM | – | 15.4 µM | – | 5.46 µM
CN(C)Cc1cc(C(F)(F)F)ccc1C(O)(c1ccccc1)c1ccccc1 | – | 24.7 µM | – | 29.5 µM | – | 26.8 µM | – | 30.9 µM | – | 31.8 µM | – | 50 µM | – | 27.3 µM | – | 29.3 µM | – | 31 µM | – | 26 µM
N#C/C(=C/c1cccc(Oc2ccccc2)c1)c1ccccc1 | – | > 100 µM | – | > 100 µM | – | > 100 µM | – | > 100 µM | – | > 100 µM | – | > 100 µM | – | > 100 µM | – | > 100 µM | – | > 100 µM | – | > 100 µM
CCCCCCCCn1ccc2cc(NC(=O)Cn3cc(CN4CCCCCC4)nn3)ccc21 | 1.76 µM | 3.2 µM | 1.77 µM | 3.36 µM | 1.66 µM | 3.1 µM | 1.72 µM | 3.33 µM | 1.7 µM | 3.17 µM | 1.74 µM | 3.33 µM | 1.74 µM | 3.13 µM | 1.67 µM | 3.26 µM | 1.63 µM | 3.06 µM | 1.93 µM | 3.45 µM
O=C1C(=O)c2ccccc2C(O)=C1C(C1=C(O)c2ccccc2C(=O)C1=O)c1ccc(Cl)cc1 | – | 34 µM | – | 42.2 µM | – | 18.2 µM | – | 27.2 µM | – | 7.78 µM | – | 13.8 µM | – | 19.9 µM | – | 3.66 µM | – | 28.2 µM | – | 23.5 µM
NC1=NN(c2ccccc2)C(=O)C1C(=O)CCC(=O)Nc1cccc(Cl)c1 (stereo not drawn) | – | > 100 µM | – | > 100 µM | – | > 100 µM | – | > 100 µM | – | > 100 µM | – | > 100 µM | – | > 100 µM | – | > 100 µM | – | > 100 µM | – | > 100 µM
COc1ccc2nc3cc(Cl)ccc3c(Sc3ccc([N+](=O)[O-])cc3C)c2c1 | – | > 100 µM | – | > 100 µM | – | > 100 µM | – | > 100 µM | – | > 100 µM | – | > 100 µM | – | > 100 µM | – | > 100 µM | – | > 100 µM | – | > 100 µM
O=C(Nc1ccc(C(F)(F)F)cc1[N+](=O)[O-])C(=O)C1NC(=S)NC1=O (stereo not drawn) | – | > 100 µM | – | > 100 µM | – | > 100 µM | – | > 100 µM | – | > 100 µM | – | > 100 µM | – | > 100 µM | – | 5.05 µM | – | > 100 µM | – | > 100 µM
O=S(=O)(C1=CC(S(=O)(=O)c2ccccc2)CN(Cc2ccccc2)C1c1cccc2ccccc12)c1ccccc1 (stereo not drawn) | – | > 69 µM | – | > 69 µM | – | > 69 µM | – | > 69 µM | – | > 69 µM | – | > 69 µM | – | > 69 µM | – | > 69 µM | – | > 69 µM | – | > 69 µM
Nc1ncc(-c2cnn(C3CCNCC3)c2)cc1-c1nc2cc(Cl)ccc2o1 | 1.71 µM | 3.12 µM | 1.53 µM | 3.11 µM | 0.851 µM | 2.13 µM | 1.04 µM | 2.43 µM | 1.55 µM | 3.07 µM | 1.96 µM | 3.68 µM | 1.66 µM | 3.08 µM | 1.24 µM | 2.71 µM | 1.94 µM | 3.58 µM | 1.96 µM | 3.65 µM
C=CC(=O)N1CCC(Oc2cc3c(Nc4ccc(Cl)c(Cl)c4F)ncnc3cc2OC)CC1 | 0.365 µM and 0.179 µM | 1.92 µM and 0.834 µM | 3.12 µM and 1.6 µM | 19.9 µM and > 10 µM | 5.28 µM and 3.72 µM | 18.9 µM and > 10 µM | 0.0855 µM and 0.0104 µM | 4.39 µM and 1.72 µM | 1.55 µM and 1.2 µM | 5.73 µM and 2.84 µM | 3.78 µM and 2.21 µM | 17.3 µM and > 10 µM | 7.18 µM and 3.47 µM | 19.3 µM and > 9 µM | 2.88 µM and 1.79 µM | 25.2 µM and > 10 µM | < 0.001 µM | 6.61 µM and 4.43 µM | 3.25 µM and 2.15 µM | 18.7 µM and > 10 µM
C=C(C)C1CC2(C)C(C)CC(O)CC2C(OC(=O)C=C(C)C)C1O (stereo not drawn) | – | > 100 µM | – | > 100 µM | – | > 100 µM | – | > 100 µM | – | > 100 µM | – | 84.3 µM | – | 49.2 µM | – | > 100 µM | – | > 100 µM | – | > 100 µM
CN(C)CCC(=O)N1C/C(=C\c2ccc(Cl)c(Cl)c2)C(=O)/C(=C/c2ccc(Cl)c(Cl)c2)C1 | – | 4.6 µM | – | 2.05 µM | – | 0.331 µM | – | 0.648 µM | – | 0.278 µM | – | 0.824 µM | – | 0.759 µM | – | 0.44 µM | – | 1.58 µM | – | 1.72 µM
CN(c1ccc(NC(=O)Nc2c(Cl)cccc2Cl)cc1)c1ccnc(Nc2cccc(CS(C)(=O)=O)c2)n1 | 4.4 µM | > 20.3 µM | 1.65 µM | 7.66 µM | 1.3 µM | 7.45 µM | 4.57 µM | > 17 µM | 2.37 µM | > 14.7 µM | 1.54 µM | 12.6 µM | 2.79 µM | 7.09 µM | 3.37 µM | 10.6 µM | 3.98 µM | 9.02 µM | 3.11 µM | 8.36 µM
CCCCCCCCCCCCCCCCCCOC[C@H](COP(=O)(O)O[C@H]1[C@H](O)[C@@H](O)[C@H](O)C[C@H]1O)OC | – | > 100 µM | > 100 µM and 15 µM | > 100 µM and 28.8 µM | > 100 µM and 15.8 µM | > 100 µM and 30.7 µM | 21.9 µM and 3.28 µM | 60.6 µM and 13.5 µM | 47.1 µM and 13.4 µM | > 100 µM and 27.3 µM | 98.4 µM and 15.3 µM | > 100 µM and 30.8 µM | > 100 µM and 18 µM | > 100 µM and 32.3 µM | > 100 µM and 12.2 µM | > 100 µM and 25.2 µM | 41.8 µM and 7.74 µM | > 100 µM and 20.7 µM | > 100 µM and 16.4 µM | > 100 µM and 30.1 µM
COc1ccc2c(c1)NC1=C(C(=O)OC1)C2c1cc(OC)c(OC)c(OC)c1 (stereo not drawn) | < 0.01 µM | < 0.01 µM | < 0.01 µM | > 100 µM | < 0.01 µM | > 100 µM | < 0.01 µM | > 100 µM | < 0.01 µM | > 100 µM | < 0.01 µM | > 54.5 µM | < 0.01 µM | < 0.0116 µM | < 0.01 µM | > 100 µM | < 0.01 µM | > 100 µM | < 0.01 µM | > 100 µM
NC(CCCC(N)P(=O)(O)O)P(=O)(O)O (stereo not drawn) | – | > 100 µM | – | > 100 µM | – | > 100 µM | – | > 100 µM | – | > 100 µM | – | > 100 µM | – | > 100 µM | – | > 100 µM | – | > 100 µM | – | > 100 µM
CCCCCCCCCCCCCP(=O)(O)O | – | > 100 µM | – | > 100 µM | – | > 100 µM | – | > 100 µM | – | > 100 µM | – | > 100 µM | – | > 100 µM | – | > 100 µM | – | > 100 µM | – | > 100 µM
OCC12C=CC(C1)c1ccccc12 (stereo not drawn) | – | > 100 µM | – | > 100 µM | – | > 100 µM | – | > 100 µM | – | > 100 µM | – | > 100 µM | – | > 100 µM | – | > 100 µM | – | > 100 µM | – | > 100 µM
CCOc1cccc(/C=N/NC(=O)c2cccc(Nc3ccnc(C(F)(F)F)c3)c2)c1O | 15 µM | > 76.9 µM | 3.73 µM | > 100 µM | 0.477 µM | > 69.4 µM | 0.852 µM | > 52.6 µM | 0.473 µM | > 26.6 µM | 2.4 µM | 27.9 µM | 0.676 µM | 7.84 µM | 1.66 µM | > 70.7 µM | 1.57 µM | 83.1 µM | 0.551 µM | 11.7 µM
CCN1CCCc2cc3c(C(F)(F)F)cc(=O)oc3cc21 | – | > 100 µM | – | > 100 µM | – | > 100 µM | – | > 100 µM | – | > 100 µM | – | > 100 µM | – | 72.3 µM | – | > 100 µM | – | > 100 µM | – | > 100 µM
N[C@H](C(=O)O)[C@@H]1CC(Cl)=NO1 | 45.5 µM | > 887 µM | 6.06 µM | 678 µM | 3.71 µM | > 1000 µM | 4.41 µM | 465 µM | 3.28 µM | > 1000 µM | 7.59 µM and 2.63 µM | > 908 µM | 8.51 µM | 493 µM | 53.7 µM | > 1000 µM | 34.5 µM | > 609 µM | 35.1 µM | 401 µM
Cc1cc(N(CC(C)Br)CC(C)Br)ccc1N=Nc1ccccc1C(=O)O (stereo not drawn) | – | 3.91 µM | – | 19.9 µM | – | 20.3 µM | – | 24.2 µM | – | 31.9 µM | – | 6.33 µM | – | 14.6 µM | – | 20 µM | – | 24.4 µM | – | 3.4 µM
O=C1C=C(Nc2ccccc2C(=O)CC(=O)C(=O)Nc2cccc([N+](=O)[O-])c2)c2ccccc2C1=O | – | > 100 µM | – | > 100 µM | – | > 100 µM | – | > 100 µM | – | 23.1 µM | – | – | – | 26.3 µM | – | 81.8 µM | – | > 100 µM | – | 86.8 µM
